Values belong to the compound of their own block, whether it stands above or below them. Square brackets hold non-standard residues; d marks the D form. Ends that are not written are not given here. Ac5c = NC1(C(=O)O)CCCC1; Aib = CC(C)(N)C(=O)O
Key:
eIF4E = target: T1, eIF4E (Homo sapiens, UniProt P06730); test: Fluorescence-based thermal stability (thermal shift) assay, FTS; type: binding; conditions: for eIF4E binding / Tm effect in FTS assay: 10 μM eIF4E, 100 μM peptide
T1 construct: Full length human eIF4E was expressed and purified; made in house
Text: Full length human eIF4E was expressed and purified as described in Brown, C.
A fluorescence based thermal shift assay was used to screen and rank the rationally designed eIF4E binding derivative peptides. The fluorescent dye Sypro Red was used to monitor thermal denaturation of eIF4E. Binding of the dye molecule to eIF4E, as it unfolds due to thermal denaturation, results in a sharp increase in the fluorescence intensity. The midpoint of this transition is termed the Tm. The thermal shift assay was conducted in the iCycler Real Time Detection System (Bio-Rad, Hercules, Calif.). The system contains a heating/cooling device for accurate temperature control and a charge-coupled device (CCD) detector for simultaneous imaging of the fluorescence changes in the wells of the microplate. […] The final protein concentration was 10 μM. Protein samples were incubated with derivative peptides at a concentration of a 100 μM. The plate was heated from 20 to 90° C. with a heating rate of 1° C./min.
where Ft is the fluorescence intensity at temperature T; Tm is the midpoint temperature of the protein-unfolding transition, Fpre and Fpost are the pretransitional and posttransitional fluorescence intensities, respectively, R is the gas constant, ΔHu is the enthalpy of protein unfolding, and ΔCpu is the heat capacity change on protein unfolding. In the absence of ligand, Tm=T0, ΔCpu=ΔC^T0pu, and ΔHu=ΔH^T0u.
To calculate the ligand-binding affinity at Tm for the derivative eIF4E binding peptides, Eq. (2) was used:
To compare binding affinities for the derivative peptides to eIF4E calculated from the thermal shift data, the binding affinity at temperature T (KL(T))) must be calculated. KL(T) can be calculated from KL(Tm) using Eq. (3A): […]
where KL(T) is the ligand association constant at temperature T, and ΔHL(T) is the van't Hoff enthalpy of binding at temperature T. The value of ΔHL(T) was taken to be 5 kcal/mol.

[1] = tested on: MCF-7 5′UTR_MYC_Gaussia reporter cell line; test: Cap-dependent translation cell-based assay (Gaussia luciferase); conditions: 6 hours
Procedure: To determine the efficacy of these peptides, a cell-based system to assay changes in cap-dependent translation was designed. […] A reporter line derived from the MCF-7 cell line that stably expresses the 5′UTR_MYC_Gaussia reporter was generated. The robustness of this model system was determined using rapamycin, which inhibits cap-dependent translation by inhibiting mTOR from phosphorylating 4EBPs.
MCF-7 (5′UTR_MYC_Gaussia) cells were cultured in DMEM with 10% FCS. Twenty thousand cells were then seeded per well in 48-wells plates in DMEM serum-free media overnight at 37° C. […] Cells were then cultured in media containing 10% FCS with Rapamycin for 24 hrs and at concentrations of 100 nM, 10 nM, 1 nM, 0.1 nM. Gaussia-Luc activities in cells were measured using Gaussia Luciferase Assay Kit (NEB) with SpectraMax M5 (molecular Devices).

[2] = tested on: MCF-7 (5′UTR_MYC_Gaussia) cells; test: WST-1 assay (cell viability); type: cell-based; conditions: 30 μM, 48 hours after treatment
Procedure: MCF-7 (5′UTR_MYC_Gaussia) cells were cultured in DMEM with 10% FCS. Twenty thousand cells were then seeded per well in 48-wells plates in DMEM serum-free media overnight at 37° C. Before overnight incubation, cells were incubated at room temperature for 30 mins. […] After 48 hrs of treatment, MCF-7 cells were incubated with Cell Proliferation Reagent WST-1(Roche) for 30 mins at 37° C. Absorbances of cell media were then read at 450 nm with SpectraMax M5.

[3] = tested on: MCF-7 (5′UTR_MYC_Gaussia) cells; test: Propidium iodide staining and FACS analysis; type: cell-based; conditions: 48 hrs
Procedure: MCF-7 (5′UTR_MYC_Gaussia) cells were cultured in DMEM with 10% FCS. Two hundred fifty thousand cells were then seeded per well in 6-wells plates containing DMEM serum-free media overnight at 37° C. Before overnight incubation, cells were incubated at room temperature for 30 mins. […] A 1% DMSO and a PBS mock treatment was also carried out. Cells were harvested and fixed in 65% ethanol in PBS and incubated at 4° C. for 2 hrs. Cells were spun down and resuspended with Propidium iodide staining solution containing Rnase A. Cells were analyzed using LSR II (BD).

[4] = tested on: endogenous c-myc in MCF-7 cells; test: Western blot of endogenous c-myc; type: cell-based; conditions: 15 μM peptide, 6 hours, vs PBS
Procedure: MCF-7 cells were cultured in DMEM with 10% FCS. Three hundred fifty thousand MCF-7 cells were then seeded per well in 6-wells plates containing DMEM serum-free media overnight at 37° C. […] A mock PBS treatment was also included. Cells were harvested at 6 hrs and lysed in RIPA buffer. Protein concentration was determined using a Lowry Assay kit (Bio-rad). Samples were loaded at 30 ug and blotted against monoclonal antibody c-myc (Sigma Aldrich #M4439). B-actin was blotted for as a loading control.

MCF-7 cells = test: Annexin staining, flow cytometry; type: cell-based; conditions: 30 μM, 48 hours
Procedure: MCF-7 cells were cultured in DMEM with 10% FCS. Two hundred fifty thousand cells were then seeded per well in 6-wells plates containing DMEM serum-free media overnight at 37° C. […] A mock PBS treatment was also included. Cells were harvested, washed in PBS and spun down at 200 g for 5 mins. Cell pellets were resuspended in Annexin-VFLUOS labeling solution from Roche and incubated for 10-15 min at 15-25° C. Cells were then analyzed using LSR II (BD).

T1 sequence (P06730 whole entry): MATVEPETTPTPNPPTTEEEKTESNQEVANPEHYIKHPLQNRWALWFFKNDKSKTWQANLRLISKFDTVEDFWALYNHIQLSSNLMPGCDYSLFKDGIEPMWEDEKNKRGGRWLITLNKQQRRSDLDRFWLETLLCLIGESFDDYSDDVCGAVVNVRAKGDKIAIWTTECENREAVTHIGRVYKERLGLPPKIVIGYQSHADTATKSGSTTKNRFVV

- eIF4E binding / Tm effect in FTS assay (eIF4E): significantly increased
Compound: CC(C)C[C@H](NC(=O)[C@H](Cc1ccccc1)NC(=O)[C@H](CCC(=O)O)NC(=O)[C@H](CCCNC(=N)N)NC(=O)[C@H](CC(=O)O)NC(=O)[C@@H](N)Cc1ccc(O)cc1)C(=O)N[C@@H](CC(C)C)C(=O)NC1(C(=O)N[C@@H](Cc2ccccc2)C(=O)N[C@@H](CCC(N)=O)C(=O)N[C@@H](Cc2ccccc2)C(=O)O)CCCC1 [Tr2_AIB3_A5C, YDREFLL5FQF]

Compound: GTKKRYDRE*LL5FQF [GT_eIF4G1_me5]
- inhibition of cap-dependent translation (luciferase output) ([1]; 100 μM and 200 μM): some biological activity in a dose responsive manner
- inhibition of cap-dependent translation (luciferase output) ([1]; non-TAT peptides, 400 μM): significant decrease in luciferase output
- WST-1 assay, difference versus control peptide [2]: marginally significant
- cell cycle populations (sub G1, G1, S, G2), words ([3]; non TAT peptides 400 μM, vs DMSO control): significant increase in the sub G1 population

Compound: GT_eIF4G1: eIF4G1 14mer with N-terminal GT linker, no TAT (GTKKRYDREFLLGFQF; not fully specified (C-terminus))
- luciferase activity, difference versus control peptide ([1]; 30 μM): no significant difference
- WST-1 assay, difference versus control peptide [2]: not significant

- drop in thermal shift from AC14 to AC13 (eIF4E; difference vs AC14): ~2.1 °C
Compound: KRYDRE*LL5FQF [AC13]
- inhibition of cap-dependent translation (luciferase output) ([1]; non-TAT peptides, 400 μM): noticeable drop in activity

- eIF4E binding / Tm effect in FTS assay (eIF4E): all eIF4E binding is lost
Compound: SEQ ID NO: 20: 11mer control peptide with the conserved tyrosine mutated to alanine (ADREFLLGFQF; Control) [reference compound]

Compound: SEQ ID NO: 29: Tr2_AIB3_A5C with alanine at position 625 (YAREFLL[Ac5c]FQF; not fully specified (C-terminus))
- eIF4E binding / Tm effect in FTS assay (eIF4E): no significant increase or decrease in potency

Compound: SEQ ID NO: 31: Tr2_AIB3_A5C with alanine at position 627 (YDRAFLL[Ac5c]FQF; not fully specified (C-terminus))
- eIF4E binding / Tm effect in FTS assay (eIF4E): no significant increase or decrease in potency

Compound: TAT_eIF4G1_Cntrl: control peptide equivalent to TAT_eIF4G1 (YGRKKRRQRRRGTKKRADREFAAGFQF; TAT_eIF4G1_Cntrl)
- cell cycle populations (sub G1, G1, S, G2), words ([3]; TAT fused peptides 30 μM, vs PBS mock): no substantive differences
- endogenous c-myc expression [4]: identical
- annexin staining of cells (apoptosis) (MCF-7 cells): few cells that could be stained

- eIF4E binding / Tm effect in FTS assay (eIF4E): severely attenuated peptide binding
Compound: Tr2_AIB1: Tr2 peptide with D625 replaced by aminoisobutyric acid (Aib) (Y[Aib]REFLLGFQF)

- eIF4E binding / Tm effect in FTS assay (eIF4E): abolished measurable peptide binding
Compound: Tr2_AIB2: Tr2 peptide with E627 replaced by Aib (YDR[Aib]FLLGFQF)

- eIF4E binding / Tm effect in FTS assay (eIF4E): increased the Tm
Compound: Tr2_AIB3: Tr2 peptide with G631 replaced by Aib (YDREFLLXFQF; Aib at position 631; Tr2_AIB3)

- eIF4E binding / Tm effect in FTS assay (eIF4E): severely attenuated peptide binding
Compound: Tr2_AIB4: Tr2 peptide with Q633 replaced by Aib (YDREFLLGF[Aib]F)

Compound: YGRKKRRQRRR [TAT, reference compound]
- eIF4E binding / Tm effect in FTS assay (eIF4E): no binding
- inhibition of cap-dependent translation (luciferase output) ([1]; TAT peptides, up to 100 μM): not inhibited by TAT alone with only a slight decrease at 100 μM
- endogenous c-myc expression [4]: identical
- annexin staining of cells (apoptosis) (MCF-7 cells): few cells that could be stained
